Test results from patent US8722711B2, “Acylbenzene derivative” (Daiichi Sankyo Company, Limited, priority 2010, dated 2014).

These compounds were tested on Male C57/BL6J mice (assay: Mouse oGTT (Oral Glucose Tolerance Test)). Conditions: 2 h, fasted 16 to 17 hours, compound 10 mg/kg orally 30 minutes before oral glucose load, AUC from 5 minutes before to 120 minutes after glucose, read-out: percentage decrease in plasma glucose AUC (%) compared with the negative control group.
Type: in vivo
Description: Mouse oGTT (Oral Glucose Tolerance Test)
A dosing preparation (1 mg/mL of each compound) was produced by suspending in a 0.5 w/v % methyl cellulose solution and then grinding in an agate mortar. Male C57/BL6J mice (Charles River Laboratories Japan, Inc.) were purchased at 6 to 8 weeks of age, and then used at 9 to 13 weeks of age. The mice were fasted from the hours of 17:00 to 18:00 on one day before the test day, and the test was started after 16 to 17 hours-fasting. Five mice were used for each group. Before dosing a compound, blood was collected from the tail vein. Thereafter, a suspension of the compound was orally administered at a dosage of 10 mg/kg. The 0.5 w/v % methyl cellulose solution was administered to a negative control group. Twenty five minutes after dosing the compound, blood was collected from the tail vein, and then thirty minutes after dosing the compound, 30 w/v % glucose solution was orally administered at a volume of 10 mL/kg. Blood was collected from the tail vein 15, 30, 60 and 120 minutes after the glucose administration. Each of the blood samples was centrifuged to obtain the plasma, and the plasma glucose level (mg/dL) was measured with a glucose analyzer (Glucoloader GXT, A&T Corp.). The plasma glucose AUC (mg/dL min) in each mouse was calculated using the plasma glucose values at 5 minutes before and 15, 30, 60 and 120 minutes after the glucose administration. The arithmetic mean of the AUC value was calculated for each group and the percentage decrease in plasma glucose AUC (%) compared with the negative control group was calculated as an index of the efficacy.

Compared with `CC[C@@H](Oc1ccc(C(=O)C2CC2)cc1)c1nc(-c2ccc(C(=O)N[C@H](C)[C@@H](O)CO)c(F)c2)no1` [Example 19, 4-(5-{(1R)-1-[4-(Cyclopropylcarbonyl)phenoxy]propyl}-1,2,4-oxadiazol-3-yl)-N-[(1R,2R)-2,3-dihydroxy-1-methylpropyl]-2-fluorobenzamide], `C[C@@H](Oc1ccc(C(=O)C2CC2)cc1)c1nc(-c2ccc(C(=O)N[C@H](C)[C@@H](O)CO)c(F)c2)no1` [Example 23, 4-(5-{(1R)-1-[4-(Cyclopropylcarbonyl)phenoxy]ethyl}-1,2,4-oxadiazol-3-yl)-N-[(1R,2R)-2,3-dihydroxy-1-methylpropyl]-2-fluorobenzamide] is higher in inhibition in vivo at 10 mg/kg: 5 to 20% for the first, > 20% for the second.

`CC[C@@H](Oc1ccc(C(=O)C2CC2)cc1)c1nc(-c2ccc(C(=O)N[C@@H](C)CO)c(F)c2)no1` [Example 4, 4-(5-{(1R)-1-[4-(Cyclopropylcarbonyl)phenoxy]propyl}-1,2,4-oxadiazol-3-yl)-2-fluoro-N-[(1S)-2-hydroxy-1-methylethyl]benzamide] and `CC[C@@H](Oc1ccc(C(=O)C2CC2)cc1)c1nc(-c2ccc(C(=O)N[C@H](C)CO)c(F)c2)no1` [Example 3, 4-(5-{(1R)-1-[4-(Cyclopropylcarbonyl)phenoxy]propyl}-1,2,4-oxadiazol-3-yl)-2-fluoro-N-[(1R)-2-hydroxy-1-methylethyl]benzamide] fall in the same range of inhibition in vivo at 10 mg/kg: 5 to 20% for the first, 5 to 20% for the second.

`CC[C@@H](Oc1ccc(C(=O)C(C)(C)C)cc1)c1nc(-c2ccc(C(=O)NC(CO)CO)c(F)c2)no1` [Example 12, 4-(5-{(1R)-1-[4-(2,2-Dimethylpropanoyl)phenoxy]propyl}-1,2,4-oxadiazol-3-yl)-2-fluoro-N-[2-hydroxy-1-(hydroxymethyl)ethyl]benzamide] and `CC[C@@H](Oc1ccc(C(=O)C(C)C)cc1)c1nc(-c2ccc(C(=O)NC(CO)CO)c(F)c2)no1` [Example 16, 2-Fluoro-N-[2-hydroxy-1-(hydroxymethyl)ethyl]-4-{5-[(1R)-1-(isobutyrylphenoxy)propyl]-1,2,4-oxadiazol-3-yl}benzamide] fall in the same range of inhibition in vivo at 10 mg/kg: 5 to 20% for the first, 5 to 20% for the second.

First: CC[C@@H](Oc1ccc(C(=O)C2CC2)cc1)c1nc(-c2ccc(C(=O)NC[C@@H](O)CO)c(F)c2)no1 [Example 5, 4-(5-{(1R)-1-[4-(Cyclopropylcarbonyl)phenoxy]propyl}-1,2,4-oxadiazol-3-yl)-N-[(2R)-2,3-dihydroxypropyl]-2-fluorobenzamide]
Second: CC[C@@H](Oc1ccc(C(=O)C2CC2)cc1)c1nc(-c2ccc(C(=O)NC[C@H](O)CO)c(F)c2)no1 [Example 1, 4-(5-{(1R)-1-[4-(Cyclopropylcarbonyl)phenoxy]propyl}-1,2,4-oxadiazol-3-yl)-N-[(2S)-2,3-dihydroxypropyl]-2-fluorobenzamide]
The inhibition in vivo at 10 mg/kg of the first is lower: 5 to 20% for the first, > 20% for the second.

`C[C@@H](CO)NC(=O)c1ccc(-c2noc([C@@H](C)Oc3ccc(C(=O)C4CC4)cc3)n2)cc1F` [Example 8, 4-(5-{(1R)-1-[4-(Cyclopropylcarbonyl)phenoxy]ethyl}-1,2,4-oxadiazol-3-yl)-2-fluoro-N-[(1S)-2-hydroxy-1-methylethyl]benzamide] and `C[C@H](CO)NC(=O)c1ccc(-c2noc([C@@H](C)Oc3ccc(C(=O)C4CC4)cc3)n2)cc1F` [Example 10, 4-(5-{(1R)-1-[4-(Cyclopropylcarbonyl)phenoxy]ethyl}-1,2,4-oxadiazol-3-yl)-2-fluoro-N-[(1R)-2-hydroxy-1-methylethyl]benzamide] fall in the same range of inhibition in vivo at 10 mg/kg: 5 to 20% for the first, 5 to 20% for the second.

First: C[C@@H](Oc1ccc(C(=O)C2CC2)cc1)c1nc(-c2ccc(C(=O)NC3CCCC3O)c(F)c2)no1 (stereo in doubt) [Example 11, 4-(5-{(1R)-1-[4-(Cyclopropylcarbonyl)phenoxy]ethyl}-1,2,4-oxadiazol-3-yl)-2-fluoro-N-[(1S,2S)-2-hydroxycyclopentyl]benzamide]
Second: C[C@@H](Oc1ccc(C(=O)C2CC2)cc1)c1nc(-c2ccc(C(=O)NC(CO)CO)c(F)c2)no1 [Example 7, 4-(5-{(1R)-1-[4-(Cyclopropylcarbonyl)phenoxy]ethyl}-1,2,4-oxadiazol-3-yl)-2-fluoro-N-[2-hydroxy-1-(hydroxymethyl)ethyl]benzamide]
The inhibition in vivo at 10 mg/kg of the first is lower: 5 to 20% for the first, > 20% for the second.

`CC[C@@H](Oc1ccc(C(=O)C(C)C)cc1)c1nc(-c2ccc(C(=O)N[C@H](C)CO)c(F)c2)no1` [Example 15, 2-Fluoro-N-[(1R)-2-hydroxy-1-methylethyl]-4-{5-[(1R)-1-(4-isobutyrylphenoxy)propyl]-1,2,4-oxadiazol-3-yl}benzamide] and `CC[C@@H](Oc1ccc(C(=O)C2CC2)cc1)c1nc(-c2ccc(C(=O)NC(CO)CO)c(F)c2)no1` [Example 6, 4-(5-{(1R)-1-[4-(Cyclopropylcarbonyl)phenoxy]propyl}-1,2,4-oxadiazol-3-yl)-2-fluoro-N-[2-hydroxy-1-(hydroxymethyl)ethyl]benzamide] fall in the same range of inhibition in vivo at 10 mg/kg: 5 to 20% for the first, 5 to 20% for the second.

`CC[C@@H](Oc1ccc(C(=O)C2CCC2)cc1)c1nc(-c2ccc(C(=O)NC(CO)CO)c(F)c2)no1` [Example 13, 4-(5-{(1R)-1-[4-(Cyclobutylcarbonyl)phenoxy]propyl}-1,2,4-oxadiazol-3-yl)-2-fluoro-N-[2-hydroxy-1-(hydroxymethyl)ethyl]benzamide] and `CC[C@@H](Oc1ccc(C(=O)C2CC2)cc1)c1nc(-c2ccc(C(=O)N[C@H](CO)CCO)c(F)c2)no1` [Example 17, 4-(5-{(1R)-1-[4-(Cyclopropylcarbonyl)phenoxy]propyl}-1,2,4-oxadiazol-3-yl)-2-fluoro-N-[(1S)-3-hydroxy-1-(hydroxymethyl)propyl]benzamide] fall in the same range of inhibition in vivo at 10 mg/kg: 5 to 20% for the first, 5 to 20% for the second.

Compared with `CC[C@@H](Oc1ccc(C(=O)C2(F)CC2)cc1)c1nc(-c2ccc(C(=O)NC(CO)CO)c(F)c2)no1` [Example 14, 2-Fluoro-4-{5-[(1R)-1-{4-[(1-fluorocyclopropyl)carbonyl]phenoxy}propyl]-1,2,4-oxadiazol-3-yl}-N-[2-hydroxy-1-(hydroxymethyl)ethyl]benzamide], `CC[C@@H](Oc1ccc(C(=O)C2CC2)cc1)c1nc(-c2ccc(C(=O)N[C@@H](CO)C(N)=O)c(F)c2)no1` [Example 2, N-[(1S)-2-Amino-1-(hydroxymethyl)-2-oxoethyl]-4-(5-{(1R)-1-[4-(cyclopropylcarbonyl)phenoxy]propyl}-1,2,4-oxadiazol-3-yl)-2-fluorobenzamide] is higher in inhibition in vivo at 10 mg/kg: 5 to 20% for the first, > 20% for the second.

`C[C@@H](Oc1ccc(C(=O)C2CC2)cc1)c1nc(-c2ccc(C(=O)NC3CCCC3O)c(F)c2)no1` (stereo in doubt) [Example 9, 4-(5-{(1R)-1-[4-(Cyclopropylcarbonyl)phenoxy]ethyl}-1,2,4-oxadiazol-3-yl)-2-fluoro-N-[(1R,2R)-2-hydroxycyclopentyl]benzamide] showed an inhibition in vivo at 10 mg/kg of 5 to 20%.
